Among the test systems are OVCAR-5; UACC-62; K562; HCT-15; 786-0; Malme-3M; SF-295; OVCAR-3; SNB-75; HL-60; IGROV-1; KM-20L2; EKVX; HCT-116; CAKI-1; NCI-H226; T47D; MCF7; SR; MDA-MB-435.
Common to all, as to experiment: NCI anticancer screen, dose series, 48 h

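These data come from cells grown in 96-well plates and exposed to compound for 48 hours at five concentrations. Here, GI50 denotes the concentration required for 50% inhibition of growth.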 The source made the active and inactive calls. Rule as the data show it: active = GI50 up to about 1.1 µM and inactive = higher.

Take `CC(C)(C)CC(C)(C)c1cc2c(O)c(c1)Cc1cc(C(C)(C)CC(C)(C)C)cc(c1O)Cc1cc(C(C)(C)CC(C)(C)C)cc(c1O)Cc1cc(C(C)(C)CC(C)(C)C)cc(c1O)Cc1cc(C(C)(C)CC(C)(C)C)cc(c1O)Cc1cc(C(C)(C)CC(C)(C)C)cc(c1O)Cc1cc(C(C)(C)CC(C)(C)C)cc(c1O)Cc1cc(C(C)(C)CC(C)(C)C)cc(c1O)C2`: the GI50 is > 100 µM (inactive) with OVCAR-5; > 100 µM (inactive) with UACC-62; > 100 µM (inactive) in the experiment with K562; more than 100 µM in the experiment with HCT-15; > 100 µM (inactive) with 786-0; > 100 µM (inactive) with Malme-3M. Besides, the GI50 in the experiment with SF-295 is > 100 µM (inactive); with OVCAR-3, > 100 µM (inactive); in the experiment on SNB-75 it was 23.9 µM (inactive); with HL-60, > 100 µM (inactive); in the experiment on IGROV-1, > 100 µM (inactive); in the experiment on KM-20L2, > 100 µM (inactive). The GI50 in the experiment on EKVX and with HCT-116 was > 100 µM (inactive) in each case.

As to `O=C(OCc1ccccc1)N1N=NC2C1C1CC(OCc3ccccc3)(OCc3ccccc3)C2O1` (stereo unspecified), the GI50 was > 100 µM (inactive) in the experiment on OVCAR-5; > 100 µM (inactive) with UACC-62; > 100 µM (inactive) in the experiment on K562; more than 100 µM with HCT-15; > 100 µM (inactive) in the experiment with CAKI-1; > 100 µM (inactive) with 786-0. Besides, the GI50 in the experiment on NCI-H226, in the experiment with Malme-3M, in the experiment with SF-295, in the experiment with OVCAR-3, with SNB-75 and in the experiment with HL-60 was > 100 µM (inactive) each time. Moreover, the GI50 with IGROV-1 and with KM-20L2 was > 100 µM (inactive) throughout.

Regarding `CC1(Sc2ccccc2)CN(Cc2ccccc2)C1=O` (stereo unspecified), the GI50 in the experiment with UACC-62 is > 100 µM (inactive); in the experiment on K562, 77.8 µM (inactive); in the experiment with HCT-15, 75.2 µM; in the experiment with 786-0, > 100 µM (inactive); with NCI-H226, > 100 µM (inactive); with SF-295 it was > 100 µM (inactive). The GI50 with OVCAR-3 is > 100 µM (inactive); in the experiment with SNB-75, 39.6 µM (inactive); in the experiment on HL-60, 60.4 µM (inactive); with IGROV-1, > 100 µM (inactive); with KM-20L2, > 100 µM (inactive); in the experiment with EKVX, > 100 µM (inactive). Further, the GI50 with HCT-116 was 60 µM (inactive).

For `O/N=C1/C(=C/c2ccccc2)CCCC1C(NO)c1ccccc1` (stereo unspecified), the GI50 was > 100 µM (inactive) with OVCAR-5; 70.3 µM (inactive) in the experiment on UACC-62; 3.31 µM (inactive) with K562; more than 100 µM in the experiment with HCT-15; > 100 µM (inactive) in the experiment on 786-0; 44.2 µM (inactive) with Malme-3M. In addition, the GI50 in the experiment with SF-295 is 78.3 µM (inactive); in the experiment with OVCAR-3, > 100 µM (inactive); in the experiment on SNB-75 it was > 100 µM (inactive); with HL-60 it was 2.29 µM (inactive); in the experiment with IGROV-1 it was > 100 µM (inactive); in the experiment with KM-20L2 it was > 100 µM (inactive). Besides, the GI50 in the experiment with EKVX was 61.9 µM (inactive); with HCT-116 it was 48.1 µM (inactive).

With `CC1=C(C(=O)OC(C)C)C(c2ccccc2C(F)(F)F)C(C(=O)OC(CO[N+](=O)[O-])CO[N+](=O)[O-])=C(C)N1` (stereo unspecified), the GI50 in the experiment on OVCAR-5 is 19.3 µM (inactive); with T47D, 3.83 µM (inactive); in the experiment on UACC-62 it was 3.99 µM (inactive); with K562, 2.69 µM (inactive); in the experiment on HCT-15, 7.96 µM; with MCF7, 4.22 µM (inactive). The GI50 in the experiment with CAKI-1 was 9.98 µM (inactive); in the experiment on 786-0, 2.87 µM (inactive); in the experiment on NCI-H226, 13.7 µM (inactive); in the experiment on Malme-3M, 12.2 µM (inactive); with SF-295 it was 4.21 µM (inactive); in the experiment on OVCAR-3, 9.31 µM (inactive). The GI50 with SNB-75 was 2.21 µM (inactive); in the experiment with HL-60, 95.5 µM (inactive); with IGROV-1, 9.29 µM (inactive); in the experiment on SR, 5 µM (inactive); in the experiment on MDA-MB-435 it was 6.28 µM (inactive); with EKVX, 13.3 µM (inactive). Besides, in the experiment with HCT-116, the GI50 is 3.76 µM (inactive).

With `Nc1nc(NCC2(CO)CC2)cc(=O)[nH]1`, the GI50 is > 100 µM (inactive) in the experiment with OVCAR-5; > 100 µM (inactive) in the experiment on T47D; > 100 µM (inactive) with UACC-62; > 100 µM (inactive) with K562; more than 100 µM in the experiment on HCT-15; > 100 µM (inactive) in the experiment on MCF7. Moreover, the GI50 in the experiment on CAKI-1, with 786-0, in the experiment on NCI-H226, with Malme-3M, with SF-295 and in the experiment on OVCAR-3 was > 100 µM (inactive) throughout. Also, the GI50 in the experiment with SNB-75, in the experiment on HL-60, with IGROV-1, with SR, with MDA-MB-435 and in the experiment on EKVX was > 100 µM (inactive) in each case. Moreover, the GI50 with HCT-116 is > 100 µM (inactive).

Take `COc1cccc(CCCNC(=O)Cc2ccccc2CO)c1`: the GI50 with OVCAR-5 was > 100 µM (inactive); with T47D it was 38.1 µM (inactive); with UACC-62, > 100 µM (inactive); in the experiment on K562, > 100 µM (inactive); with HCT-15 it was more than 100 µM; in the experiment on MCF7, > 100 µM (inactive). In addition, the GI50 in the experiment on CAKI-1, in the experiment with 786-0, in the experiment with NCI-H226, with Malme-3M, with SF-295 and with OVCAR-3 was > 100 µM (inactive) throughout. The GI50 in the experiment on SNB-75, in the experiment with HL-60, in the experiment on IGROV-1, in the experiment on SR, with MDA-MB-435 and in the experiment with EKVX was > 100 µM (inactive) throughout. Further, the GI50 in the experiment on HCT-116 was > 100 µM (inactive).

For the molecule `COc1cc2cccc(/N=C/c3c(Br)ccc(OC)c3OC(C)C)c2cc1OC`, the GI50 was > 100 µM (inactive) in the experiment on OVCAR-5; 45.7 µM (inactive) in the experiment on UACC-62; 27 µM (inactive) in the experiment on K562; 27.9 µM (inactive) in the experiment on CAKI-1; 26.5 µM (inactive) in the experiment with 786-0; 74.5 µM (inactive) in the experiment with Malme-3M. Further, the GI50 in the experiment on SF-295 is 53.6 µM (inactive); in the experiment with OVCAR-3, 33.7 µM (inactive); in the experiment on SNB-75, 24.4 µM (inactive); with IGROV-1, 59.4 µM (inactive); in the experiment on KM-20L2, > 100 µM (inactive); with EKVX, > 100 µM (inactive). For the same molecule, in the experiment with HCT-116, the GI50 was 31 µM (inactive).

Turning to `Cc1cc(O)c(O)c(Oc2cc(C)cc(O)c2O)c1`, the GI50 with OVCAR-5 is 34.2 µM (inactive); with T47D, 26.7 µM (inactive); in the experiment with UACC-62 it was 11.7 µM (inactive); with K562, 15.1 µM (inactive); in the experiment with HCT-15, 9.14 µM; with MCF7, 13.1 µM (inactive). In addition, the GI50 with CAKI-1 was 32 µM (inactive); in the experiment on 786-0, 18.2 µM (inactive); in the experiment on NCI-H226, 18.4 µM (inactive); in the experiment with Malme-3M, > 10 µM (inactive); with SF-295, 14.8 µM (inactive); in the experiment with OVCAR-3, 4.48 µM (inactive). Besides, the GI50 in the experiment with SNB-75 is 75.7 µM (inactive); in the experiment on HL-60 it was 1.99 µM (inactive); in the experiment with IGROV-1, 12.4 µM (inactive); in the experiment with SR, 6.7 µM (inactive); with MDA-MB-435, 12.7 µM (inactive); in the experiment with EKVX, 16 µM (inactive). Moreover, in the experiment on HCT-116, the GI50 was 14.5 µM (inactive).

Consider `O=C1NC(c2cccc3ccccc23)Nc2ccc(Cl)cc21` (stereo unspecified), for which the GI50 in the experiment on OVCAR-5 is 0.0244 µM (active); in the experiment with T47D it was 20.5 µM (inactive); in the experiment on UACC-62 it was 0.000214 µM (active); in the experiment on K562, < 0.0001 µM (active); with HCT-15, 0.0018 µM; in the experiment with MCF7, 0.0741 µM (active). Further, the GI50 with CAKI-1 was 0.00118 µM (active); in the experiment with 786-0, 0.00193 µM (active); with NCI-H226, 0.00432 µM (active); with Malme-3M it was 0.00176 µM (active); in the experiment with SF-295 it was 0.000516 µM (active); in the experiment with OVCAR-3, 0.0016 µM (active). Further, the GI50 was 0.000164 µM (active) in the experiment with SNB-75; 0.000133 µM (active) in the experiment on HL-60; 0.0181 µM (active) in the experiment with IGROV-1; 0.000229 µM (active) in the experiment on SR; < 0.0001 µM (active) with MDA-MB-435; 0.00235 µM (active) in the experiment on EKVX. In addition, the GI50 in the experiment on HCT-116 is 0.000912 µM (active).

In the case of `C[C@]12CC/C(=N\OC(=O)Nc3ccccc3)C=C1CC[C@@H]1C2CC[C@@]2(C)C1CC[C@@H]2OC(=O)Nc1ccccc1` (stereo partly specified), the GI50 in the experiment with OVCAR-5 is > 100 µM (inactive); in the experiment with UACC-62, 59 µM (inactive); with K562, 17.7 µM (inactive); in the experiment with HCT-15, 3.3 µM; with CAKI-1 it was 3.27 µM (inactive); with 786-0, > 100 µM (inactive). The GI50 with SF-295 is 47.9 µM (inactive); in the experiment with OVCAR-3, > 100 µM (inactive); in the experiment on SNB-75, 31.5 µM (inactive); in the experiment with HL-60 it was 8.79 µM (inactive); with IGROV-1 it was > 100 µM (inactive); with KM-20L2, > 100 µM (inactive). Further, the GI50 in the experiment with EKVX and with HCT-116 was > 100 µM (inactive) throughout.

In the case of `O=C(O)CC(CC(=O)O)C(=O)O` [TRICARBALLYLIC ACID], the GI50 in the experiment on OVCAR-5 was > 100 µM (inactive); with T47D it was > 100 µM (inactive); in the experiment on UACC-62 it was > 100 µM (inactive); with K562, > 100 µM (inactive); in the experiment on HCT-15, more than 100 µM; with MCF7 it was > 100 µM (inactive). For the same molecule, the GI50 in the experiment on CAKI-1, with 786-0, with NCI-H226, in the experiment with Malme-3M, in the experiment on SF-295 and with OVCAR-3 was > 100 µM (inactive) in each case. The GI50 with SNB-75, in the experiment on HL-60, in the experiment with IGROV-1, in the experiment on SR, with MDA-MB-435 and in the experiment on EKVX was > 100 µM (inactive) in each case. In addition, the GI50 in the experiment with HCT-116 was > 100 µM (inactive).

These data come from ChEMBL document CHEMBL1201862, “PubChem BioAssay data set” (2004).
